Experimental data reported in ChEMBL document CHEMBL1201862, “PubChem BioAssay data set” (2004).
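In this assay, cells in 96-well plates receive the compound at five concentrations for 48 hours. Endpoints are linearly interpolated between the surrounding concentrations. At the GI50, growth is halved.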 The source made the active and inactive calls. No stated cut-off is given here; in the data, active = GI50 up to about 1.1 µM and inactive = higher.

Legend:
Test in all cases: growth of human tumour cells (NCI), 48 h
UACC-62 = tested on: UACC-62
UO-31 = tested on: UO-31
MDA-MB-435 = tested on: MDA-MB-435
SF-295 = tested on: SF-295
HOP-62 = tested on: HOP-62
LOX IMVI = tested on: LOX IMVI
SN12C = tested on: SN12C
T47D = tested on: T47D
SK-OV-3 = tested on: SK-OV-3
SNB-19 = tested on: SNB-19
OVCAR-8 = tested on: OVCAR-8
UACC-257 = tested on: UACC-257
SK-MEL-2 = tested on: SK-MEL-2
M14 = tested on: M14
U-251 = tested on: U-251
HT-29 = tested on: HT-29
SNB-75 = tested on: SNB-75
SR = tested on: SR
IGROV-1 = tested on: IGROV-1
NCI-H226 = tested on: NCI-H226

Measured: GI50

Clc1ccc(COC(Cn2ccnc2)c2ccc(Cl)cc2Cl)c(Cl)c1 (stereo not drawn) [MICONAZOLE]
inactive: UACC-62 11.5 µM | UO-31 3.82 µM | MDA-MB-435 3.23 µM | SF-295 11.2 µM | HOP-62 13.5 µM | LOX IMVI 12.7 µM | SN12C 13.6 µM | T47D 7.89 µM | SK-OV-3 14.3 µM | SNB-19 13.4 µM | OVCAR-8 13.9 µM | UACC-257 13.6 µM | SK-MEL-2 16.2 µM | M14 12.6 µM | U-251 11.7 µM

COc1ccc(OC)c2c1ccc1c(C)c3ccccc3c(C)c12
inactive: UACC-62 > 100 µM | UO-31 82.2 µM | HT-29 95.1 µM | MDA-MB-435 > 100 µM | SNB-75 > 100 µM | HOP-62 86.5 µM | LOX IMVI 60.1 µM | SR 36.6 µM | SN12C 22.9 µM | T47D > 100 µM | IGROV-1 > 100 µM | SNB-19 > 100 µM | OVCAR-8 > 100 µM | UACC-257 > 100 µM | SK-MEL-2 > 100 µM | M14 82 µM | U-251 > 100 µM | NCI-H226 > 100 µM

CC1(C)[C@H]2CC[C@@]13C(=O)N1C(=O)O[C@@H]([C@H]1Cl)C(Cl)(COCc1ccccc1)C(=O)OCCO[C@H]3C2 (stereo partly drawn)
inactive: UACC-62 83.6 µM | UO-31 96.4 µM | HT-29 35.6 µM | MDA-MB-435 42.8 µM | SNB-75 > 100 µM | SF-295 51.1 µM | HOP-62 > 100 µM | LOX IMVI 74 µM | SR 39.7 µM | T47D 43.1 µM | SK-OV-3 > 100 µM | IGROV-1 > 100 µM | SNB-19 > 100 µM | OVCAR-8 > 100 µM | UACC-257 48.9 µM | SK-MEL-2 85.5 µM | M14 69.2 µM | U-251 39.4 µM

N[C@@H](Cc1ccccc1)C(=O)N1CCC[C@@H]1P(=O)(Oc1ccccc1)Oc1ccccc1
inactive: UACC-62 > 100 µM | UO-31 > 100 µM | HT-29 86.3 µM | MDA-MB-435 > 100 µM | SNB-75 > 100 µM | SF-295 > 100 µM | HOP-62 > 100 µM | LOX IMVI > 100 µM | SN12C > 100 µM | T47D > 100 µM | SK-OV-3 > 100 µM | IGROV-1 > 100 µM | SNB-19 > 100 µM | OVCAR-8 > 100 µM | UACC-257 > 100 µM | SK-MEL-2 > 100 µM | M14 > 100 µM | U-251 > 100 µM | NCI-H226 > 100 µM

Nc1c(-c2nc3ccccc3s2)c2ccc([N+](=O)[O-])cc2c(=O)n1-c1cccc(C(=O)O)c1
inactive: UACC-62 21 µM | UO-31 24.1 µM | HT-29 86.1 µM | MDA-MB-435 35.6 µM | SNB-75 30.8 µM | LOX IMVI 31.8 µM | SR 15.8 µM | SN12C 30.3 µM | T47D 21 µM | SNB-19 19.8 µM | OVCAR-8 27.7 µM | UACC-257 20.9 µM | SK-MEL-2 20.9 µM | U-251 23.4 µM | NCI-H226 23 µM

Cc1cn(CC2=NCCCN2)c(=O)[nH]c1=O
inactive: UACC-62 > 100 µM | UO-31 > 100 µM | HT-29 > 100 µM | SNB-75 > 100 µM | SF-295 > 100 µM | HOP-62 > 100 µM | LOX IMVI > 100 µM | SR > 100 µM | SN12C > 100 µM | T47D > 100 µM | SK-OV-3 > 100 µM | IGROV-1 > 100 µM | SNB-19 > 100 µM | OVCAR-8 > 100 µM | UACC-257 > 100 µM | SK-MEL-2 > 100 µM | M14 > 100 µM | U-251 > 100 µM | NCI-H226 > 100 µM

Cc1cc2c(cc1O)CC[C@@H]1[C@@H]2CC[C@]2(C)[C@@H](O)CC[C@@H]12
inactive: UO-31 14.8 µM | HT-29 17.1 µM | SNB-75 5.43 µM | SF-295 6.08 µM | LOX IMVI 11 µM | SR 1.83 µM | SN12C 13.3 µM | T47D 19.3 µM | SK-OV-3 11.5 µM | IGROV-1 15.8 µM | SNB-19 12.6 µM | OVCAR-8 19.1 µM | UACC-257 15.3 µM | SK-MEL-2 5.48 µM | M14 7.24 µM | U-251 5.73 µM

CCOP(=O)(OCC)/C(C#N)=C/c1ccc(-c2cc(C(F)(F)F)cc(C(F)(F)F)c2)o1
inactive: UO-31 16.8 µM | HT-29 6.55 µM | MDA-MB-435 14 µM | SNB-75 10.5 µM | SF-295 1.82 µM | HOP-62 14.5 µM | LOX IMVI 3.34 µM | SR 7.43 µM | SN12C 15.1 µM | T47D 11.9 µM | SNB-19 16 µM | OVCAR-8 16.2 µM | UACC-257 16.3 µM | SK-MEL-2 20.3 µM | M14 10.2 µM | U-251 12 µM | NCI-H226 14.8 µM

COc1ccc(-c2cc(-c3ccc(Nc4ccnc5cc(C(F)(F)F)ccc45)cc3)[nH]c(=O)c2C#N)cc1
inactive: UACC-62 62.4 µM | HT-29 > 33.2 µM | MDA-MB-435 39.6 µM | SNB-75 8.24 µM | SF-295 > 32.7 µM | LOX IMVI 16.6 µM | SR 9.51 µM | SN12C > 100 µM | T47D 45.7 µM | IGROV-1 > 81.5 µM | SNB-19 16.4 µM | OVCAR-8 > 77.4 µM | UACC-257 > 100 µM | SK-MEL-2 > 50.6 µM | M14 27.2 µM | U-251 9.57 µM | NCI-H226 > 29.3 µM

COc1cc(OC)c(C/C=C/c2ccccc2)cc1O
inactive: UACC-62 15.5 µM | UO-31 14.7 µM | HT-29 17.7 µM | MDA-MB-435 17 µM | SNB-75 14.6 µM | LOX IMVI 16 µM | SN12C 16 µM | T47D 10.6 µM | IGROV-1 16.3 µM | SNB-19 15.9 µM | OVCAR-8 16.1 µM | UACC-257 23.6 µM | SK-MEL-2 19.4 µM | M14 19 µM | U-251 16.7 µM | NCI-H226 17.9 µM

Nc1ncn2c(n1)nc1ccccc12
inactive: UACC-62 > 100 µM | UO-31 > 100 µM | HT-29 > 100 µM | MDA-MB-435 > 100 µM | SNB-75 3.51 µM | SF-295 > 100 µM | SR > 100 µM | SN12C > 100 µM | T47D > 100 µM | SK-OV-3 > 100 µM | IGROV-1 > 100 µM | SNB-19 > 100 µM | OVCAR-8 > 100 µM | UACC-257 > 100 µM | SK-MEL-2 > 100 µM | M14 > 100 µM | U-251 > 100 µM | NCI-H226 > 100 µM
